Data published in patent publication US12421252B2, “Spiro (isobenzofuranazetidine) compounds for the treatment of autoimmune disease” (Hoffmann-La Roche Inc., priority 2020, dated 2025).

Legend:
hERG channel = target: T1, hERG channel (Homo sapiens, UniProt Q12809); test: hERG channel inhibition assay (patch-clamp, CHO hERG cells); format: cell-based; details: for IC50 / IC20: CHO hERG cells, whole-cell patch-clamp; for IC20: human, CHO cells stably expressing hERG; for hERG IC20/TLR7 IC50 / hERG IC20/TLR8 IC50 / hERG IC20/TLR9 IC50: safety ratio
T1 construct: expressed in transfected cells
Procedure: hERG Channel Inhibition Assay:
The hERG K+ channels were cloned in humans and stably expressed in a CHO (Chinese hamster ovary) cell line. CHOhERG cells were used for patch-clamp (voltage-clamp, whole-cell) experiments. Cells were stimulated by a voltage pattern to activate hERG channels and conduct IKhERG Currents (rapid delayed outward rectifier potassium current of the hERG channel). After the cells were stabilized for a few minutes, the amplitude and kinetics of IKhERG were recorded at a stimulation frequency of 0.1 Hz, (6 bpm). Thereafter, the test compound was added to the preparation at increasing concentrations. For each concentration, an attempt was made to reach a steady-state effect, usually, this was achieved within 3-10 min at which time the next highest concentration was applied. The amplitude and kinetics of IKhERG are recorded in each concentration of the drug which were compared to the control values (taken as 100%). (references: Redfern W S, Carlsson L, Davis A S, Lynch W G, MacKenzie I, Palethorpe S, Siegl P K, Strang I, Sullivan A T, Wallis R, Camm A J, Hammond T G. 2003; Relationships between preclinical cardiac electrophysiology, clinical QT interval prolongation and torsade de pointes for a broad range of drugs: evidence for a provisional safety margin in drug development. Cardiovasc. Res. 58:32-45, Sanguinetti M C, Tristani-Firouzi M. 2006; hERG potassium channels and cardiac arrhythmia. Nature 440:463-469, Webster R, Leishman D, Walker D. 2002; Towards a drug concentration effect relationship for QT prolongation and torsades de pointes. Curr. Opin. Drug Discov. Devel. 5:116-26).

CYP3A4 = target: T2, CYP3A4 (Homo sapiens, UniProt P08684); test: CYP inhibition assay in human liver microsome, CYP3A4; format: in vitro ADME; details: percentage inhibition, substrate Midazolam 5 μM, <0: not or weak inhibitor
T2 construct: tissue BD-Gentest 452117; host or cells: human liver microsomes
Procedure: This is a high throughput screening assay used for assessment of reversible inhibition of CYP2C9, CYP2D6, and CYP3A4 activity of test compounds in human liver microsome (HLM) in early discovery stage.
Procedure 10 mM DMSO stock solutions of test compounds were diluted in DMSO to generate 2 mM intermediate stock solution. 250 nL of intermediate stock solution were transferred in duplicate into 3 separate 384 well microtitre plates (assay-ready plates). A mixture of HLM and each substrate was made up. 45 μL of HLM substrate mix was then transferred to each well of an assay ready plate and mixed. The negative (solvent) and positive controls (standard inhibitor for each CYP) were included in each assay ready plate. The assay ready plate was warmed to 37° C. in an incubator over 10 minutes. 5 μL pre-warmed NADPH regenerating system was added to each incubation well to start the reaction. Final incubation volume was 50 μL. The assay plate then was placed back in the 37° C. incubator. After incubation (10 minutes for CYP2D6) for 5 minutes, incubates were quenched by addition of 50 μL 100% acetonitrile containing internal standards (400 ng/mL 13C6-4′-OH-Diclofenac, 20 ng/mL D3-Dextrorphan and 20 ng/mL D4-1′OH-Midazolam). The supernatants were collected for RapidFire/MS/MS analysis.
RapidFire online solid phase extraction/sample injection system (Agilent) coupled with API4000 triple quadrupole mass spectrometer (AB Sciex) were used for sample analysis. The mobile phase composed of acetonitrile and water supplemented with 0.1% formic acid. A C4 solid phase extraction cartridge is used for sample separation. MS detection is achieved in positive ion MRM mode.
Data analysis Peak areas for substrate, metabolite and internal standard are determined using the RapidFire integrator software (version 3.6.12009.12296). Peak area ratios (PAR) of metabolite and internal standard (stable-labelled metabolite) are then calculated. The measurement window for each experiment is then defined: PAR (0% activity)=average PAR for all incubations containing concentrated inhibitor; Par (100% activity)=average PAR for all incubations containing no inhibitor (DMSO controls); % Activity (test inhibitor)=[PAR (test inhibitor)-PAR (0% activity)]/[PAR (100% activity)-PAR (0% activity)]; % Inhibition (test inhibitor)=100-% Activity (test inhibitor).

T2 sequence (P08684 whole entry): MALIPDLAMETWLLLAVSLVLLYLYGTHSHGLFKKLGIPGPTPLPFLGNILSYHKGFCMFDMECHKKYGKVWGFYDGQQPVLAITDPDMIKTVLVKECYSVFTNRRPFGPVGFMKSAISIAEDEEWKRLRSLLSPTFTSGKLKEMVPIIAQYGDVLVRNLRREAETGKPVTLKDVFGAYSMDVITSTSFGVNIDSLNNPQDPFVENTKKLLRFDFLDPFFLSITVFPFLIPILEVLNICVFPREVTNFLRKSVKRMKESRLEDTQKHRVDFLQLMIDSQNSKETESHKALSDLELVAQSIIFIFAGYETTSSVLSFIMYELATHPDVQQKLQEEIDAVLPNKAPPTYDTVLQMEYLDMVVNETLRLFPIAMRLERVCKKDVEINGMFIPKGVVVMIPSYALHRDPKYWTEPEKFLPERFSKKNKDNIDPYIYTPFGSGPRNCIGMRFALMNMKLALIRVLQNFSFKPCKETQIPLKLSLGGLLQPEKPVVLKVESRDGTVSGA
T1 sequence (Q12809 whole entry): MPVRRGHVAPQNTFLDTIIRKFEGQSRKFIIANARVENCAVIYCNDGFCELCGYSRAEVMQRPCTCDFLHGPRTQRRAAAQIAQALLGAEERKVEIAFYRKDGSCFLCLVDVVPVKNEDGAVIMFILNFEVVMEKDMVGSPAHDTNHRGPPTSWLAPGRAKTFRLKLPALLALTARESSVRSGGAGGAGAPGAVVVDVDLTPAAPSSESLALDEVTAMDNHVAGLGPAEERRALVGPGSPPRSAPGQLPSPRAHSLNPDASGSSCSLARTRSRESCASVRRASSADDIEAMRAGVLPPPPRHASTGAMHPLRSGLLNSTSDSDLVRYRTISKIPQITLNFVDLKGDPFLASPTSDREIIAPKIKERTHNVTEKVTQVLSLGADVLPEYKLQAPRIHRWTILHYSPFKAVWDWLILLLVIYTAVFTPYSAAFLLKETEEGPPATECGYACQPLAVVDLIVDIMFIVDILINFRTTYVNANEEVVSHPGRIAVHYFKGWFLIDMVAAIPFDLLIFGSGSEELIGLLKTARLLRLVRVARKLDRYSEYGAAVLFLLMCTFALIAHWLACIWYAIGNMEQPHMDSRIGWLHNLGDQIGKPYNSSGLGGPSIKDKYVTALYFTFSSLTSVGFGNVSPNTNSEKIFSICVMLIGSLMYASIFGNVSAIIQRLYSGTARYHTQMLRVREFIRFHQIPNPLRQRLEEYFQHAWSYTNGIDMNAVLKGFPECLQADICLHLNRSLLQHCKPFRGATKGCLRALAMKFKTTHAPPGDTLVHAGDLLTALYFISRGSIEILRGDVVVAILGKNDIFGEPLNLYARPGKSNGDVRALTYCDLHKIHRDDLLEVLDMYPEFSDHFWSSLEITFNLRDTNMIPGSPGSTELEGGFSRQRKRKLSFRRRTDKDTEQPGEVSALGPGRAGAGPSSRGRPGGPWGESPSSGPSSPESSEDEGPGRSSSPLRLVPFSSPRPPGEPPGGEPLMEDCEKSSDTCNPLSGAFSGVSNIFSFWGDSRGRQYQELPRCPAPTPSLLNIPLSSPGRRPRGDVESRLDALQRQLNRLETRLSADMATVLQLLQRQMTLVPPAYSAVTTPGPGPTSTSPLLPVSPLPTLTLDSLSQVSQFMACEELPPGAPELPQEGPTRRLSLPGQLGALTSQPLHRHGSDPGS

Row | Compound | CYP (%) 3A4 (CYP3A4) | IC50 (hERG channel) | IC20 (hERG channel) | hERG IC20/TLR7 IC50 (hERG channel) | hERG IC20/TLR8 IC50 (hERG channel) | hERG IC20/TLR9 IC50 (hERG channel)
1 | C[C@@H]1CN(c2ccc(C#N)n3ncc(F)c23)C[C@H](CN2CC3(C2)OCc2cc(N4CC5(CN(C)C5)C4)ccc23)O1 [Example 2, 3-fluoro-4-[(2R,6S)-2-methyl-6-[[6-(6-methyl-2,6-diazaspiro[3.3]heptan-2-yl)spiro[1H-isobenzofuran-3,3′-azetidine]-1′-yl]methyl]morpholin-4-yl]pyrazolo[1,5-a]pyridine-7-carbonitrile] |  | > 20 µM | 9.9 µM | 990 | 396 | 220
2 | C[C@@H]1CN(c2ccc(C#N)n3nccc23)C[C@H](CN2CC3(C2)OCc2cc(N4CC5(CNCCO5)C4)ccc23)O1 [Example 7, 4-[(2R,6S)-2-methyl-6-[[6-(5-oxa-2,8-diazaspiro[3.5]nonan-2-yl)spiro[1H-isobenzofuran-3,3′-azetidine]-1′-yl]methyl]morpholin-4-yl]pyrazolo[1,5-a]pyridine-7-carbonitrile] | 16.5% |  |  |  |  | 
3 | [2H]c1ccc2c(N3C[C@H](CN4CC5(C4)OCc4cc(N6CC(C)(N)C6)cnc45)O[C@H](C)C3)ccc(C#N)c2n1 [Example 21, 5-[(2S,6R)-2-[[3-(3-amino-3-methyl-azetidin-1-yl)spiro[5H-furo[3,4-b]pyridine-7,3′-azetidine]-1′-yl]methyl]-6-methyl-morpholin-4-yl]-2-deuterio-quinoline-8-carbonitrile] | 12.5% | > 20 µM | > 10 µM | >1428 | >588 | >181
4 | [2H]c1ccc2c(N3C[C@H](CN4CC5(C4)OCc4cc(N6CC(N)C6)cnc45)O[C@H](C)C3)ccc(C#N)c2n1 [Example 20, 5-[(2S,6R)-2-[[3-(3-aminoazetidin-1-yl)spiro[5H-furo[3,4-b]pyridine-7,3′-azetidine]-1′-yl]methyl]-6-methyl-morpholin-4-yl]-2-deuterio-quinoline-8-carbonitrile] | 40.5% |  |  |  |  | 

Further lines, with some results ahead:

Row | CYP (%) 3A4 (CYP3A4) | Compound | IC50 (hERG channel) | IC20 (hERG channel) | hERG IC20/TLR7 IC50 (hERG channel) | hERG IC20/TLR8 IC50 (hERG channel) | hERG IC20/TLR9 IC50 (hERG channel)
5 | 14% | [2H]c1ccc2c(N3C[C@H](CN4CC5(C4)OCc4cc(N6C[C@H]7NCCO[C@@H]7C6)ccc45)O[C@H](C)C3)ccc(C#N)c2n1 [Example 17, 5-[(2S,6R)-2-[[6-[(4aR,7aR)-3,4,4a,5,7,7a-hexahydro-2H-pyrrolo[3,4-b][1,4]oxazin-6-yl]spiro[1H-isobenzofuran-3,3′-azetidine]-1′-yl]methyl]-6-methyl-morpholin-4-yl]-2-deuterio-quinoline-8-carbonitrile] |  |  |  |  | 
6 | −0.5% | C[C@@H]1CN(c2ccc(C#N)n3ncc(F)c23)C[C@H](CN2CC3(C2)OCc2cc(N4CC(C)(N)C4)ncc23)O1 [Example 24, 4-[(2S,6R)-2-[[6-(3-amino-3-methyl-azetidin-1-yl)spiro[1H-furo[3,4-c]pyridine-3,3′-azetidine]-1′-yl]methyl]-6-methyl-morpholin-4-yl]-3-fluoro-pyrazolo[1,5-a]pyridine-7-carbonitrile] |  |  |  |  | 
